Publication PMC8632988, “Inhibition of SYK and cSrc kinases can protect bone and cartilage in preclinical models of osteoarthritis and rheumatoid arthritis” (Scientific Reports, 2021)
Several values for one entry are separate records, joined by “and”; a condition that tells them apart may be missing. Equal entries are not always repeated.

Legend:
human osteoclasts = test: Osteoclast-mediated resorption of the mineralized matrix; type: cell-based; parameters: Ratio %: unit not given here; conditions: for Ratio %: vehicle average = 1.000
Method: The experiment was performed at Atlantic Bone Screen (France) and approved by Atlantic Bone Screen ethics committee. Human CD14 + monocytes were isolated from peripheral blood of healthy volunteers (informed consent was obtained from all subjects) using density gradient centrifugation (Ficoll-Hypaque) and magnetic cell sorting (MACS, MiltenyiBiotec). CD14 + monocytes (1.5 × 10^6 cells/well) were cultured for three days in proliferation medium (αMEM/FCS-10% supplemented with 25 ng/mL M-CSF), inducing proliferation and expression of RANK. Secondly, the cells were differentiated into osteoclasts in differentiation medium supplemented with 100 ng/mL RANKL for 4 days. Osteoclasts were detached from the wells using accutase, the cell suspension was homogenized and cells (75 μL/well) were reseeded into: (a) a 96-well plate coated with a synthetic mineralized matrix for an evaluation of osteoclast resorption, or (b) a classic 96-well plastic culture plate, for an assessment of osteoclast number. 75 μL of differentiation medium containing M-CSF and RANKL (at a 2 × concentration) was added to each well. The cells were incubated for an hour and were cultured for 48 h in the fresh differentiation medium supplemented with MT-SYK-03 or vehicle (DMSO, 0.3%). All treatments were carried out in quadruple. Then the cell medium was removed, cells were lysed and the surface of the resorbed areas of the mineralized matrix was quantified in each well. TRAP staining was performed for cells in a classic plastic plate and the number of mature osteoclasts (TRAP-positive cells with three or more nuclei) was determined in each well. Reconstruction of images and osteoclast count was performed using Nikon NIS-D software.

[1] = system: Wistar rats, MIA osteoarthritis model; test: Monosodium iodoacetate induced osteoarthritis in rats; type: in vivo, rat; conditions: MT-SYK-03 100 mg/kg
Method: Monosodium iodoacetate (MIA) osteoarthritis model was performed at Pharmenterprises, Russia according to the known procedure[32] and approved by Ethics Committee of Pharmenterprises. Male 10 week old Wistar rats were divided into eight groups: negative control (#1), positive control (#2) and six treatment groups (#3–8), ten rats in each group. Group #1 was left intact while rats in groups #2–8 were anesthetized on the day 0 with intraperitoneal injection of Zoletil and Xylazine mixture and given a single intra-articular injection of MIA through the infrapatellar ligament of the right knee. Rats were treated as follows: (#1, #2) 0.5% solution of methylcellulose in PBS (pH = 3) as vehicle control, (#3, #5) 100 mg/kg MT-SYK-03, (#4, #6) 500 mg/kg MT-SYK-03, (#7) 50 mg/kg nalgesin and (#8) 0.1 mg/kg zoledronic acid. Rats in groups #1–4 received treatment intragastrically QD, 25 and 1 h before the MIA injection, and then daily until the end of the study on the day 28. Rats in groups #5–6 received treatment intragastrically QD from the day 7 until the end of the study. Rats in group #7 were treated QD starting on the day 14 and until the end of the study. Finally, rats in group #8 were treated subcutaneously immediately after the MIA injection and then every third day until the study end. Disease progression was monitored by measuring mechanical hyperalgesia, mechanical allodynia and grip strength of hind paws on the days 14, 21, and 28, just before the treatment, and 1, 3, 6 h after it.

[2] = MT-SYK-03 0.12 μM, individual wells
[3] = MT-SYK-03 0.37 μM, individual wells
[4] = MT-SYK-03 3.3 μM, individual wells
[5] = MT-SYK-03 10 μM, individual wells
[6] = 7–28 days QD, 14 day, 1 hour after admin.
[7] = 7–28 days QD, 14 day, 3 hours after admin.
[8] = 7–28 days QD, 21 day, 1 hour after admin.
[9] = 7–28 days QD, 21 day, 3 hours after admin.
[10] = 7–28 days QD, 28 day, 1 hour after admin.
[11] = 7–28 days QD, 28 day, 3 hours after admin.
[12] = −1–28 days QD, 14 day, 1 hour after admin.
[13] = −1–28 days QD, 14 day, 3 hours after admin.

What does the source list for COc1cc(Nc2ncnc(Nc3cc4c(cn3)NC(=O)C(C)(C)O4)n2)cc(OC)c1OC [MT-SYK-03]?
Relative resorbed surface (human osteoclasts; 10 μM, 48 h, versus vehicle control): more than threefold; Ratio resorption/Nb OC (human osteoclasts; MT-SYK-03 0.12 μM, Average): 0.079; Resorption, % resorption (human osteoclasts; MT-SYK-03 0.12 μM, Average): 31.78%; TRAP, Number of osteoclasts (Nb OC) (human osteoclasts; MT-SYK-03 0.12 μM, Average): 405; Ratio % (human osteoclasts; MT-SYK-03 0.12 μM, Average): 1.001; Ratio resorption/Nb OC (human osteoclasts; [2]): 0.088 and 0.075 and 0.085 and 0.067; Resorption, % resorption (human osteoclasts; [2]): 34.41% and 30.62% and 34.06% and 28.02%; TRAP, Number of osteoclasts (Nb OC) (human osteoclasts; [2]): 389 and 408 and 402 and 419; Ratio resorption/Nb OC (human osteoclasts; MT-SYK-03 0.37 μM, Average): 0.062; Resorption, % resorption (human osteoclasts; MT-SYK-03 0.37 μM, Average): 26.43%; TRAP, Number of osteoclasts (Nb OC) (human osteoclasts; MT-SYK-03 0.37 μM, Average): 422; Ratio % (human osteoclasts; MT-SYK-03 0.37 μM, Average): 0.789; Ratio resorption/Nb OC (human osteoclasts; [3]): 0.084 and 0.065 and 0.069 and 0.031; Resorption, % resorption (human osteoclasts; [3]): 33.11% and 27.51% and 32.94% and 12.15%; TRAP, Number of osteoclasts (Nb OC) (human osteoclasts; [3]): 394 and 426 and 478 and 391; Ratio resorption/Nb OC (human osteoclasts; MT-SYK-03 3.3 μM, Average): 0.015; Resorption, % resorption (human osteoclasts; MT-SYK-03 3.3 μM, Average): 2.81%; TRAP, Number of osteoclasts (Nb OC) (human osteoclasts; MT-SYK-03 3.3 μM, Average): 196; Ratio % (human osteoclasts; MT-SYK-03 3.3 μM, Average): 0.197; Ratio resorption/Nb OC (human osteoclasts; [4]): 0.014 and 0.025 and 0.011 and 0.012; Resorption, % resorption (human osteoclasts; [4]): 2.31% and 3.40% and 2.62% and 2.91%; TRAP, Number of osteoclasts (Nb OC) (human osteoclasts; [4]): 165 and 136 and 247 and 235; Ratio resorption/Nb OC (human osteoclasts; MT-SYK-03 10 μM, Average): 0.004; Resorption, % resorption (human osteoclasts; MT-SYK-03 10 μM, Average): 1.53%; TRAP, Number of osteoclasts (Nb OC) (human osteoclasts; MT-SYK-03 10 μM, Average): 8; Ratio % (human osteoclasts; MT-SYK-03 10 μM, Average): 0.044; Ratio resorption/Nb OC (human osteoclasts; [5]): 0.016 and 0.024 and 0.023 and 0.028; Resorption, % resorption (human osteoclasts; [5]): 5.87% and 9.73% and 8.76% and 11.00% and 8.84%; TRAP, Number of osteoclasts (Nb OC) (human osteoclasts; [5]): 371 and 402 and 388 and 390; hind paws grip strength [1, 6]: 70.1 ± 10.8 % from the initial one; mechanical allodynia pain threshold [1, 6]: 70.2±7.7 % from the initial one; mechanical hyperalgesia [1, 6]: 51.9 ± 4.1 & % from the initial one; hind paws grip strength [1, 7]: 58.9 ± 7.8 & % from the initial one; mechanical allodynia pain threshold [1, 7]: 78.7±10.6 % from the initial one; mechanical hyperalgesia [1, 7]: 50.6 ± 5.6 & % from the initial one; hind paws grip strength [1, 8]: 76.3 ± 6.2 & % from the initial one; mechanical allodynia pain threshold [1, 8]: 75.3±15.4 % from the initial one; mechanical hyperalgesia [1, 8]: 85.1 ± 5 % from the initial one; hind paws grip strength [1, 9]: 62.56 ± 7.58 % from the initial one; mechanical allodynia pain threshold [1, 9]: 73.1±7.9 % from the initial one; mechanical hyperalgesia [1, 9]: 73.5 ± 6.9 & % from the initial one; hind paws grip strength [1, 10]: 74.4 ± 13.0 % from the initial one; mechanical allodynia pain threshold [1, 10]: 61.7±5.8 % from the initial one; mechanical hyperalgesia [1, 10]: 67.7 ± 9.8 & % from the initial one; hind paws grip strength [1, 11]: 58.1 ± 10.0 % from the initial one; mechanical allodynia pain threshold [1, 11]: 78.3±8 % from the initial one; mechanical hyperalgesia [1, 11]: 71.24 ± 7.99 % from the initial one; hind paws grip strength [1, 12]: 56.3 ± 5.2 & % from the initial one; mechanical allodynia pain threshold [1, 12]: 136.3±22.5 & % from the initial one; mechanical hyperalgesia [1, 12]: 73.5 ± 10.5 & % from the initial one; hind paws grip strength [1, 13]: 58.7 ± 8.2 & % from the initial one; mechanical allodynia pain threshold [1, 13]: 136.7±29.2 & % from the initial one; mechanical hyperalgesia [1, 13]: 63.9 ± 7.5 & % from the initial one
